{"source": "paper PMC10233829", "about": "(ACS Omega, 2023)", "tested_on": "M. tuberculosis Spec 210", "test": "microbe, parasite or virus in culture", "format": "cell-based, Mycobacterium tuberculosis", "conditions": "for MIC M. tuberculosis Spec 210 (multidrug-resistant): MABA; for MIC: Mycobacterium tuberculosis, SPEC210, read-out: MIC M. tuberculosis Spec 210 (multidrug-resistant), MABA", "data": [{"compound": "O=C(O)c1cn(C2CC2)c2cc(N3CCN(C(=O)CCCl)CC3)c(F)cc2c1=O", "note": "[Compound 4, 7-[4-(3-Chloropropionyl)-piperazin-1-yl]-1-cyclopropyl-6-fluoro-4-oxo-1,4-dihydro-quinoline-3-carboxylic Acid]", "values": [{"measurement": "MIC M. tuberculosis Spec 210 (multidrug-resistant)", "value": 2, "unit": "µg/mL"}, {"measurement": "MIC", "value": "1 to 2", "unit": "µg/mL"}]}, {"compound": "O=C(O)c1cn(C2CC2)c2cc(N3CCN(C(=O)CCCCCCl)CC3)c(F)cc2c1=O", "note": "[Compound 7, 7-[4-(6-Chlorohexanoyl)-piperazin-1-yl]-1-cyclopropyl-6-fluoro-4-oxo-1,4-dihydro-quinoline-3-carboxylic Acid]", "values": [{"measurement": "MIC", "value": "≤ 0.25", "unit": "µg/mL"}]}, {"compound": "C=CC(=O)N1CCN(c2cc3c(cc2F)c(=O)c(C(=O)O)cn3C2CC2)CC1", "note": "[Compound 1, 7-(4-Acryloyl-piperazin-1-yl)-1-cyclopropyl-6-fluoro-4-oxo-1,4-dihydro-quinoline-3-carboxylic Acid]", "values": [{"measurement": "MIC M. tuberculosis Spec 210 (multidrug-resistant)", "value": 2, "unit": "µg/mL"}, {"measurement": "MIC", "value": "1 to 2", "unit": "µg/mL"}]}, {"compound": "CO[C@H]1/C=C/O[C@@]2(C)Oc3c(C)c(O)c4c(O)c(c(/C=N/N5CCN(C)CC5)c(O)c4c3C2=O)NC(=O)/C(C)=C\\C=C\\[C@H](C)[C@H](O)[C@@H](C)[C@@H](O)[C@@H](C)[C@H](OC(C)=O)[C@@H]1C", "note": "[rifampicin (RMP), rifampicin, reference compound]", "values": [{"measurement": "MIC", "value": 32, "unit": "µg/mL"}]}, {"compound": "O=C(O)c1cn(C2CC2)c2cc(N3CCN(C(=O)CCCCl)CC3)c(F)cc2c1=O", "note": "[Compound 5, 7-[4-(4-Chlorobutyryl)-piperazin-1-yl]-1-cyclopropyl-6-fluoro-4-oxo-1,4-dihydro-quinoline-3-carboxylic Acid]", "values": [{"measurement": "MIC", "value": "≤ 0.25", "unit": "µg/mL"}]}, {"compound": "O=C(O)c1cn(C2CC2)c2cc(N3CCN(C(=O)CCl)CC3)c(F)cc2c1=O", "note": "[Compound 3, 7-[4-(2-Chloroacetyl)-piperazin-1-yl]-1-cyclopropyl-6-fluoro-4-oxo-1,4-dihydro-quinoline-3-carboxylic Acid]", "values": [{"measurement": "MIC M. tuberculosis Spec 210 (multidrug-resistant)", "value": 2, "unit": "µg/mL"}, {"measurement": "MIC", "value": "1 to 2", "unit": "µg/mL"}]}, {"compound": "O=C(O)c1cn(C2CC2)c2cc(N3CCN(C(=O)CCCCCBr)CC3)c(F)cc2c1=O", "note": "[Compound 12, 7-[4-(6-Bromohexanoyl)-piperazin-1-yl]-1-cyclopropyl-6-fluoro-4-oxo-1,4-dihydro-quinoline-3-carboxylic Acid]", "values": [{"measurement": "MIC", "value": "≤ 0.25", "unit": "µg/mL"}]}, {"compound": "O=C(O)c1cn(C2CC2)c2cc(N3CCN(C(=O)CC(F)(F)F)CC3)c(F)cc2c1=O", "note": "[Compound 14, 7-[4-(3,3,3-Trifluoropropionyl)-piperazin-1-yl]-1-cyclopropyl-6-fluoro-4-oxo-1,4-dihydro-quinoline-3-carboxylic Acid]", "values": [{"measurement": "MIC", "value": 32, "unit": "µg/mL"}]}, {"compound": "O=C(O)c1cn(C2CC2)c2cc(N3CCN(CCCCCC(=O)N4CCN(c5cc6c(cc5F)c(=O)c(C(=O)O)cn6C5CC5)CC4)CC3)c(F)cc2c1=O", "note": "[Compound 20, CP–Hexanoyl–CP Dimer]", "values": [{"measurement": "MIC", "value": 16, "unit": "µg/mL"}]}, {"compound": "O=C(O)c1cn(C2CC2)c2cc(N3CCN(C(=O)CCC(F)(F)F)CC3)c(F)cc2c1=O", "note": "[Compound 15, 7-[4-(4,4,4-Trifluorobutyryl)-piperazin-1-yl]-1-cyclopropyl-6-fluoro-4-oxo-1,4-dihydro-quinoline-3-carboxylic Acid]", "values": [{"measurement": "MIC", "value": 32, "unit": "µg/mL"}]}, {"compound": "O=C(O)c1cn(C2CC2)c2cc(N3CCN(CCCCCCCCCCC(=O)N4CCN(c5cc6c(cc5F)c(=O)c(C(=O)O)cn6C5CC5)CC4)CC3)c(F)cc2c1=O", "note": "[Compound 21, CP–Undecanoyl–CP Dimer]", "values": [{"measurement": "MIC M. tuberculosis Spec 210 (multidrug-resistant)", "value": 1, "unit": "µg/mL"}, {"measurement": "MIC", "value": "1 to 2", "unit": "µg/mL"}]}, {"compound": "CC[C@@H](CO)NCCN[C@@H](CC)CO", "note": "[ethambutol(EMB), ethambutol, reference compound]", "values": [{"measurement": "MIC", "value": 32, "unit": "µg/mL"}]}, {"compound": "O=C(O)c1cn(C2CC2)c2cc(N3CCN(CCCCC(=O)N4CCN(c5cc6c(cc5F)c(=O)c(C(=O)O)cn6C5CC5)CC4)CC3)c(F)cc2c1=O", "note": "[Compound 19, CP–Pentanoyl–CP Dimer]", "values": [{"measurement": "MIC M. tuberculosis Spec 210 (multidrug-resistant)", "value": 1, "unit": "µg/mL"}, {"measurement": "MIC", "value": "1 to 2", "unit": "µg/mL"}]}, {"compound": "O=C(O)c1cn(C2CC2)c2cc(N3CCN(C(=O)CCCCBr)CC3)c(F)cc2c1=O", "note": "[Compound 11, 7-[4-(5-Bromopentanoyl)-piperazin-1-yl]-1-cyclopropyl-6-fluoro-4-oxo-1,4-dihydro-quinoline-3-carboxylic Acid]", "values": [{"measurement": "MIC", "value": "≤ 0.25", "unit": "µg/mL"}]}, {"compound": "NNC(=O)c1ccncc1", "note": "[isoniazid (INH), isoniazid, reference compound]", "values": [{"measurement": "MIC", "value": 16, "unit": "µg/mL"}]}, {"compound": "O=C(O)c1cn(C2CC2)c2cc(N3CCN(C(=O)CCCC(F)(F)F)CC3)c(F)cc2c1=O", "note": "[Compound 16, 7-[4-(5,5,5-Trifluoropentanoyl)-piperazin-1-yl]-1-cyclopropyl-6-fluoro-4-oxo-1,4-dihydro-quinoline-3-carboxylic Acid]", "values": [{"measurement": "MIC", "value": 32, "unit": "µg/mL"}]}, {"compound": "O=C(O)c1cn(C2CC2)c2cc(N3CCN(CC(=O)N4CCN(c5cc6c(cc5F)c(=O)c(C(=O)O)cn6C5CC5)CC4)CC3)c(F)cc2c1=O", "note": "[Compound 17, CP–Acetyl–CP Dimer]", "values": [{"measurement": "MIC", "value": 16, "unit": "µg/mL"}]}, {"compound": "O=C(O)c1cn(C2CC2)c2cc(N3CCN(CCCC(=O)N4CCN(c5cc6c(cc5F)c(=O)c(C(=O)O)cn6C5CC5)CC4)CC3)c(F)cc2c1=O", "note": "[Compound 18, CP–Butyryl–CP Dimer]", "values": [{"measurement": "MIC", "value": 4, "unit": "µg/mL"}]}, {"compound": "O=C(O)c1cn(C2CC2)c2cc(N3CCN(C(=O)CBr)CC3)c(F)cc2c1=O", "note": "[Compound 8, 7-[4-(2-Bromoacetyl)-piperazin-1-yl]-1-cyclopropyl-6-fluoro-4-oxo-1,4-dihydro-quinoline-3-carboxylic Acid]", "values": [{"measurement": "MIC", "value": 8, "unit": "µg/mL"}]}, {"compound": "O=C(O)c1cn(C2CC2)c2cc(N3CCN(C(=O)CCCCCCCCCCBr)CC3)c(F)cc2c1=O", "note": "[Compound 13, 7-[4-(11-Bromoundekanoyl)-piperazin-1-yl]-1-cyclopropyl-6-fluoro-4-oxo-1,4-dihydro-quinoline-3-carboxylic Acid]", "values": [{"measurement": "MIC M. tuberculosis Spec 210 (multidrug-resistant)", "value": 1, "unit": "µg/mL"}, {"measurement": "MIC", "value": "1 to 2", "unit": "µg/mL"}]}, {"compound": "O=C(O)c1cn(C2CC2)c2cc(N3CCN(C(=O)CCCCCl)CC3)c(F)cc2c1=O", "note": "[Compound 6, 7-[4-(5-Chloropentanoyl)-piperazin-1-yl]-1-cyclopropyl-6-fluoro-4-oxo-1,4-dihydro-quinoline-3-carboxylic Acid]", "values": [{"measurement": "MIC", "value": "≤ 0.25", "unit": "µg/mL"}]}, {"compound": "O=C(O)c1cn(C2CC2)c2cc(N3CCN(C(=O)C4CC4)CC3)c(F)cc2c1=O", "note": "[Compound 2, 7-(4-Cyclopropanecarbonyl-piperazin-1-yl)-1-cyclopropyl-6-fluoro-4-oxo-1,4-dihydro-quinoline-3-carboxylic Acid]", "values": [{"measurement": "MIC", "value": "≤ 0.25", "unit": "µg/mL"}]}, {"compound": "[H]/N=C(/N)N[C@H]1[C@H](O)[C@@H](O)[C@H](O[C@@H]2O[C@@H](C)[C@](O)(C=O)[C@H]2O[C@@H]2O[C@@H](CO)[C@H](O)[C@@H](O)[C@@H]2NC)[C@@H](N/C(N)=N\\[H])[C@@H]1O", "note": "[streptomycin (SM), streptomycin, reference compound]", "values": [{"measurement": "MIC", "value": 16, "unit": "µg/mL"}]}, {"compound": "O=C(O)c1cn(C2CC2)c2cc(N3CCN(C(=O)CCCBr)CC3)c(F)cc2c1=O", "note": "[Compound 10, 7-[4-(4-Bromobutyryl)-piperazin-1-yl]-1-cyclopropyl-6-fluoro-4-oxo-1,4-dihydro-quinoline-3-carboxylic Acid]", "values": [{"measurement": "MIC", "value": "≤ 0.25", "unit": "µg/mL"}]}, {"compound": "O=C(O)c1cn(C2CC2)c2cc(N3CCN(C(=O)CCBr)CC3)c(F)cc2c1=O", "note": "[Compound 9, 7-[4-(3-Bromopropionyl)-piperazin-1-yl]-1-cyclopropyl-6-fluoro-4-oxo-1,4-dihydro-quinoline-3-carboxylic Acid]", "values": [{"measurement": "MIC M. tuberculosis Spec 210 (multidrug-resistant)", "value": 1, "unit": "µg/mL"}, {"measurement": "MIC", "value": "1 to 2", "unit": "µg/mL"}]}]}
